Measurements as given in patent US11840686B2, “Modulation of prekallikrein (PKK) expression” (Ionis Pharmaceuticals, Inc., priority 2013, dated 2023).
Strand notation (5' to 3'): a small letter for the sugar, then the base; units joined by * are phosphorothioate-linked, units joined directly phosphodiester-linked; [ ] holds rarer units or linkages, { } end groups; capitals alone tell only the bases. e = 2'-O-(2-methoxyethyl) (MOE); [5mC] = 5-methylcytosine; d = 2'-deoxy (DNA)

How the values were obtained:
[1] = system: captopril and ISIS 461756-induced vascular permeability; experiment: Evans Blue vascular permeability in captopril and ISIS 461756-induced angioedema mouse models (Example 11); type: in vivo; conditions: for OD600 nm of Evans Blue dye, Colons / OD600 nm of Evans Blue dye, Ears / OD600 nm of Evans Blue dye, Feet / OD600 nm of Evans Blue dye, Intestines: captopril Yes
Excerpt: Hereditary angioedema (HAE) is characterized by local swelling and increase in vascular permeability in subcutaneous tissues (Morgan, B. P. N. Engl. J. Med. 363: 581-83, 2010). It is caused by a deficiency of the C1 inhibitor, a protein of the complement system. Two mouse models were used in this study including an established mouse model of C1-INH deficiency and a captopril-induced edema model, both of which cause vascular permeability, a hallmark of HAE. Reversal of vascular permeability is accompanied by increased plasma levels of high molecular weight kininogen (HMWK).
In the first model, angioedema was induced by treatment with Captopril, a known antihypertensive agent, which increases vascular permeability in mice and replicates the pathology of hereditary angioedema.
In the second model, angioedema was induced by treatment with ISIS 461756, an antisense oligonucleotide which targets murine C1 inhibitor mRNA, which increases vascular permeability in mice and replicates the pathology of hereditary angioedema. ISIS 461756 (SEQ ID NO: 2245; […]) is a 5-10-5 MOE gapmer targeting nucleosides 1730-1749 of NM_009776.3 (SEQ ID NO: 2243).
The effect of HOE-140 and ISIS 482584, an antisense oligonucleotide inhibitor of PKK, were evaluated in the Captopril and ISIS 461756-induced mouse models of vascular permeability. Some of the murine groups were treated with HOE-140, a selective antagonist of the bradykinin B2 receptor, which blocks vasodilation and vascular permeability (Cruden and Newby, Expert Opin. Pharmacol. 9: 2383-90, 2008). Other mice were treated with ISIS 482584, which inhibits PKK mRNA expression. The effect of treatment with HOE-140 was compared with the effect of treatment with ISIS 482584.
Group 1 consisted of 4 C57BL/6J-Tyrc-2J mice treated with PBS administered subcutaneously twice a week for 4 weeks. No other treatment was administered to Group 1 which served as a control group to measure the basal level of vascular permeability.
Group 2 consisted of 8 C57BL/6J-Tyrc-2J mice treated with PBS administered subcutaneously twice a week for 4 weeks. At the end of the treatment, the mice were intraperitoneally administered 20 μg of captopril. Group 2 served as a PBS control group for captopril-induced vascular permeability.
(§1) Group 3 consisted of 8 C57BL/6J-Tyrc-2J mice treated with PBS administered subcutaneously twice a week for 4 weeks. On day 14, the mice were treated with 50 mg/kg of the antisense oligonucleotide targeting C1 inhibitor, ISIS 461756, administered subcutaneously twice a week for 2 weeks. At the end of the treatment period, the mice were intraperitoneally administered 20 μg of captopril. Group 3 served as a PBS control group for captopril and ISIS 461756-induced vascular permeability.
Group 4 consisted of 8 C57BL/6J-Tyrc-2J mice treated with PBS administered subcutaneously twice a week for 4 weeks. On day 14, the mice were treated with 50 mg/kg of the antisense oligonucleotide targeting C1 inhibitor, ISIS 461756, administered subcutaneously twice a week for 2 weeks. At the end of the treatment period, the mice were intraperitoneally administered 20 μg of captopril. The mice were then also intraperitoneally administered 30 μg of HOE-140. Group 4 served as a positive control for inhibition of vascular permeability with HOE-140.
as §1, with “5” for “3”, “40 mg/kg of control oligonucleotide ISIS 141923, a 5-10-5 MOE gapmer with no known murine target, ([…]; SEQ ID NO: 2246)” for “PBS”, “a” for “a PBS”, “permeability. […]” for “permeability.”

[2] = system: human PKK mRNA; experiment: Antisense inhibition of human PKK mRNA in HepaRG cells, 5,000 nM (Example 2); type: cell-based
Procedure, shortened: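 qRT-PCR (RTS3454) read-out, RIBOGREEN-normalized; % inhibition vs untreated cells. HepaRG, 20,000 cells/well, electroporation, 5,000 nM ASO, ~24 h.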

[3] = ISIS 461756 Yes, ISIS oligonucleotides 40 mg/kg sc twice a week 4 weeks, HOE-140 30 μg ip
[4] = ISIS 461756 No, 40 mg/kg sc twice a week 4 weeks

## NC(N)=NCCC[C@@H](N)C(=O)N[C@@H](CCCN=C(N)N)C(=O)N1CCC[C@H]1C(=O)N1C[C@H](O)C[C@H]1C(=O)NCC(=O)N[C@@H](Cc1cccs1)C(=O)N[C@@H](CO)C(=O)N1Cc2ccccc2C[C@@H]1C(=O)N1[C@H](C(=O)N[C@@H](CCCN=C(N)N)C(=O)O)C[C@@H]2CCCC[C@@H]21 [HOE-140, Icatibant, reference compound]
[1]; [3]
  OD600 nm of Evans Blue dye, Colons: 0.14
  OD600 nm of Evans Blue dye, Ears: 0.09
  OD600 nm of Evans Blue dye, Feet: 0.07
  OD600 nm of Evans Blue dye, Intestines: 0.18

## Tes Ges mCes Aes Aes Gds Tds mCds Tds mCds Tds Tds Gds Gds mCds Aes Aes Aes mCes Ae [ISIS 546254]
[2]; HepaRG cells, 5,000 nM, electroporation, 24 hours
  inhibition of human PKK mRNA: 95%

## ISIS 482584: 5-10-5 MOE gapmer targeting murine PKK, GGCATATTGGTTTTTGGAAT; SEQ ID NO: 2244 (antisense eG*eG*e[5mC]*eA*eT*dA*dT*dT*dG*dG*dT*dT*dT*dT*dT*eG*eG*eA*eA*eT)
[1]; 40 mg/kg s.c. twice a week for 4 weeks, mice treated with captopril or captopril and ISIS 461756, vs PBS controls
  vascular permeability: prevents vascular permeability
[1]; [4]
  OD600 nm of Evans Blue dye, Colons: 0.27
  OD600 nm of Evans Blue dye, Ears: 0.14
  OD600 nm of Evans Blue dye, Feet: 0.07
  OD600 nm of Evans Blue dye, Intestines: 0.30
[1]; [3]
  OD600 nm of Evans Blue dye, Colons: 0.21
  OD600 nm of Evans Blue dye, Ears: 0.06
  OD600 nm of Evans Blue dye, Feet: 0.07
  OD600 nm of Evans Blue dye, Intestines: 0.34

## 531231 (eT*eA*eT*e[5mC]*eA*d[5mC]*dT*dG*dT*dA*d[5mC]*dT*dA*dG*dT*eT*eT*e[5mC]*e[5mC]*eT) [compound 531231]
[2]; HepaRG cells, 5,000 nM antisense oligonucleotide, human PKK mRNA, Table 18
  % inhibition: 90%
[2]; HepaRG cells, 5,000 nM antisense oligonucleotide, 5-10-5 gapmers, Table 16
  % inhibition: 93%
[2]; HepaRG cells, 5,000 nM antisense oligonucleotide, 5-10-5 gapmers, Table 17
  % inhibition: 91%
[2]; HepaRG cells, electroporation with 5,000 nM antisense oligonucleotide, approximately 24 hours, PKK mRNA by RT-PCR (RTS3454), relative to untreated control cells, Table 5 experiment
  % inhibition: 98%
[2]; HepaRG cells, electroporation with 5,000 nM antisense oligonucleotide, approximately 24 hours, PKK mRNA by RT-PCR (RTS3454), relative to untreated control cells, Table 6 experiment
  % inhibition: 86%
[2]; HepaRG cells, electroporation, 5,000 nM antisense oligonucleotide, approx. 24 hours, primer probe set RTS3454, relative to untreated control cells, Table 11
  % inhibition: 90%
[2]; HepaRG cells, electroporation, 5,000 nM antisense oligonucleotide, approx. 24 hours, primer probe set RTS3454, relative to untreated control cells, Table 12
  % inhibition: 90%
[2]; Table 7, HepaRG cells, electroporation with 5,000 nM antisense oligonucleotide, approx. 24 hours, PKK mRNA by RT-PCR (RTS3454), relative to untreated control cells
  % inhibition: 88%
[2]; Table 8, HepaRG cells, electroporation with 5,000 nM antisense oligonucleotide, approx. 24 hours, PKK mRNA by RT-PCR (RTS3454), relative to untreated control cells
  % inhibition: 95%
[2]; Table 9 experiment, HepaRG cells, 20,000 cells per well, electroporation with 5,000 nM antisense oligonucleotide, approx. 24 hours, PKK mRNA by RT-PCR (RTS3454), relative to untreated control cells
  % inhibition: 96%
[2]; Table 10 experiment, HepaRG cells, 20,000 cells per well, electroporation with 5,000 nM antisense oligonucleotide, approx. 24 hours, PKK mRNA by RT-PCR (RTS3454), relative to untreated control cells
  % inhibition: 72%
[2]; Table 13, human PKK mRNA in HepaRG cells, 5-10-5 gapmers
  % inhibition: 85%
[2]; human PKK mRNA in HepaRG cells, 5-10-5 gapmers, Table 14
  % inhibition: 85%
[2]; human PKK mRNA, HepaRG cells, 5-10-5 motif oligonucleotides targeting SEQ ID NO: 1 and 10
  % inhibition: 93%
